This note sets out measurements from patent publication US3956492A, “Pharmaceutical compositions containing a 3-(amino-methylene)-5-phenyl-1,4-benzodiazepin-2-one and method of use” (Boehringer Ingelheim GmbH, priority 1972, dated 1976).

Where two headings read alike, the source gives them in different places.

Holding throughout (type): in vivo
For one series, the system named is adult laboratory mice. The series can be described thus: Standard acute toxicity tests. Conditions: group of 10 adult laboratory mice. As for the experimental part:
It should be added that the compounds of the formula I are virtually non-toxic. For instance, by standard acute toxicity tests were determined that even massive doses of 6400 mgm/kg p.o. of compound A or 3200 mgm/kg p.o. of compounds B or C produced no deaths in a group of 10 adult laboratory mice within 14 days.

The test system of another series is female NMRI-mice. The series can be described thus: Muscle-relaxing and sedative activity by the method of Young and Lewis (holding ability in slowly rotating inclined wire-mesh cylinders). Particulars: Mus musculus, po, 50% of animals fall out of cylinders. As for the experimental part:
The muscle-relaxing and sedative activities were tested by the method of Young and Lewis [Science 105, 368 (1947)]on female NMRI-mice of our own breed with a body weight between 20 and 26 gm by means of slowly turning wire-mesh cylinders, inclined at 30° from the vertical (length : 43 cm; diameter : 22 cm; mesh-size of the wire netting : 0.6 cm). After peroral administration of the test compound in the form of a 1% suspension in tylose to groups of 10 mice/dose their holding ability in the slowly rotating cylinders was tested (2 rotations/minute) against a control group. The median effective dose (ED50) was graphically determined which caused 50% of the animals to fall out of the cylinders at various time intervals after administration.

The next series concerns male NMRI-mice. Briefly: Anticonvulsive activity, protective effect against the maximum electro-shock-spasm. Particulars: Mus musculus, po, p.o., 50% protected against tonic extensor component. As for the experimental part:
The anticonvulsive activity was tested in terms of the protective effect against the maximum electro-shock-spasm in male NMRI-mice of our own breed with a body weight between 20 and 26 gm analogous to Swinyard, Brown and Goodman [J. Pharmacol. exp. Therap. 106, 319 (1952)]. The animals were exposed to an alternating current of 50 cycles and 50 milliamperes (duration of stimulation 0.2 seconds), where the occurrence of the tonic extensor spasm was valued as positive. After peroral administration of the test compound in the form of a 1% suspension in tylose, the dose (ED50) was graphically determined which protected 50% of the animals against the tonic extensor component of the back extremities after various time intervals.

In a further series the test system is mice. Briefly: Effect on spontaneous motility (sedative activity). Conditions: Mus musculus, po, motility decreased by 50% vs control animals. The source says: The sedative activity was further determined on mice in terms of the decreasing effect upon the spontaneous motility. The motility of 8 mice per dose of test compound was compared to the motility of 8 control animals; each group was placed into separate motility-measuring cages (diameter : 25 cm), with 10 photoelectric cells in the floor and a light source above the cage. After peroral administration of the test compound the dose was graphically determined which decreased the motility by 50%, compared to the control animals, at various time intervals after administration.

[1] abbreviates: after 30-60 min., read-out: ED50 after 30-60 min.
[2] abbreviates: after 90-120 min., read-out: ED50 after 90-120 min.
Setting [3] is: after 210-240 min., read-out: ED50 after 210-240 min.
Where [4] appears, read: after 270-300 min., read-out: ED50 after 270-300 min.
Where [5] appears, read: 0.5 h, after 30 min., read-out: ED50 after 30 min.
Setting [6] is: 2.5 h, after 150 min., read-out: ED50 after 150 min.
Where [7] appears, read: 5 h, after 300 min., read-out: ED50 after 300 min.
[8] abbreviates: after 90-95 min., read-out: ED50 after 90-95 min.
Setting [9] is: after 150-155 min., read-out: ED50 after 150-155 min.

In the case of `CN1C(=O)C(=CN2CCOCC2)N=C(c2ccccc2Cl)c2cc(Cl)ccc21` [A, 7-chloro-5-(2'-chloro-phenyl)-1,3-dihydro-1-methyl-3-(morpholino-methylene)-2H-1,4-benzodiazepin-2-one], the “deaths within 14 days” value in the series with adult laboratory mice (6400 mgm/kg p.o.) is recorded as “no deaths”. Also, the median effective dose (ED50) with female NMRI-mice (setting [1]) is 14 mg/kg; in the series on female NMRI-mice (setting [2]), 5 mg/kg; in the series with female NMRI-mice (setting [3]), 14 mg/kg; in the series with female NMRI-mice (setting [4]) it was 3 mg/kg; in the series with male NMRI-mice (setting [5]), 100 mg/kg; in the series on male NMRI-mice (setting [6]), 18 mg/kg. Besides, the ED50 in the series on male NMRI-mice (setting [7]) came to 13 mg/kg.

As for `NC=C1N=C(c2ccccc2Cl)c2cc(Cl)ccc2NC1=O` [B, 3-(amino-methylene)-7-chloro-5-(2'-chloro-phenyl)-1,3-dihydro-2H-1,4-benzodiazepin-2-one], the “deaths within 14 days” value with adult laboratory mice (3200 mgm/kg p.o.) is given as “no deaths”. Moreover, the median effective dose (ED50) with female NMRI-mice (setting [1]) was determined as 13 mg/kg; in the series on female NMRI-mice (setting [2]), 3 mg/kg; with female NMRI-mice (setting [3]), 10 mg/kg; in the series on female NMRI-mice (setting [4]), 11 mg/kg; in the series with male NMRI-mice (setting [5]) it was 85 mg/kg; with male NMRI-mice (setting [6]), 28 mg/kg. Also, the ED50 in the series on male NMRI-mice (setting [7]) turned out to be 43 mg/kg.

Regarding `CCNC=C1N=C(c2ccccc2Cl)c2cc(Cl)ccc2N(C)C1=O` [C, 3-(ethylamino-methylene)-7-chloro-5-(2'-chloro-phenyl)-1,3-dihydro-1-methyl-2H-1,4-benzodiazepin-2-one], in the series on adult laboratory mice (3200 mgm/kg p.o.), the “deaths within 14 days” value is reported as “no deaths”. For the same compound, the ED50 in the series with female NMRI-mice (setting [1]) came to 2 mg/kg; in the series on female NMRI-mice (setting [2]) it was 3 mg/kg; in the series on female NMRI-mice (setting [3]), 11 mg/kg; in the series with female NMRI-mice (setting [4]) it was 3 mg/kg; in the series with male NMRI-mice (setting [5]) it was 200 mg/kg; in the series with male NMRI-mice (setting [6]), 28 mg/kg. The median effective dose (ED50) in the series on male NMRI-mice (setting [7]) was 36 mg/kg.

Regarding `CN1C(=O)C(=CN)N=C(c2ccccc2Cl)c2cc(Br)ccc21` [Compound E, 3-(amino-methylene)-7-bromo-5-(2'-chloro-phenyl)-1,3-dihydro-1-methyl-2H-1,4-benzodiazepin-2-one], the 50% effective dose (ED50) in the series with female NMRI-mice (setting [1]) turned out to be 7 mg/kg; with female NMRI-mice (setting [2]), 7 mg/kg; in the series with female NMRI-mice (setting [3]), 5 mg/kg; in the series with female NMRI-mice (setting [4]), 6 mg/kg; with male NMRI-mice (setting [5]), 18 mg/kg; with male NMRI-mice (setting [6]), 17 mg/kg. For the same compound, the ED50 in the series with male NMRI-mice (setting [7]) worked out at 26 mg/kg.

Take `CN1C(=O)C(=CN2CCOCC2)N=C(c2ccccc2Cl)c2cc(Br)ccc21` [D, 7-bromo-5-(2'-chloro-phenyl)-1,3-dihydro-1-methyl-3-(morpholino-methylene)-2H-1,4-benzodiazepin-2-one]: the ED50 in the series on mice (setting [8]) was 4.4 mg/kg; in the series with mice (setting [9]), 5.2 mg/kg; in the series with female NMRI-mice (setting [1]) it was 33 mg/kg; with female NMRI-mice (setting [2]), 26 mg/kg; with female NMRI-mice (setting [3]), 16 mg/kg; with female NMRI-mice (setting [4]), 13 mg/kg. The 50% effective dose (ED50) in the series on male NMRI-mice (setting [5]) worked out at 200 mg/kg; in the series with male NMRI-mice (setting [6]), 31 mg/kg; in the series with male NMRI-mice (setting [7]), 34 mg/kg.

For the compound `NC=C1N=C(c2ccccc2Cl)c2cc(Br)ccc2NC1=O` [F, 3-(amino-methylene)-7-bromo-5-(2'-chloro-phenyl)-1,3-dihydro-2H-1,4-benzodiazepin-2-one], the ED50 in the series on mice (setting [8]) is 8.15 mg/kg; with mice (setting [9]), 3.76 mg/kg; in the series with female NMRI-mice (setting [1]) it was 0.5 mg/kg; in the series with female NMRI-mice (setting [2]), 0.7 mg/kg; in the series with female NMRI-mice (setting [3]) it was 0.7 mg/kg; in the series with female NMRI-mice (setting [4]), 1.9 mg/kg. For the same compound, the values for the ED50 with male NMRI-mice (setting [5]), with male NMRI-mice (setting [6]) and in the series with male NMRI-mice (setting [7]) were 70 mg/kg, 14.5 mg/kg and 16 mg/kg, respectively.

As for `CCNC=C1N=C(c2ccccc2Cl)c2cc(Br)ccc2NC1=O` [G, 3-(ethylamino-methylene)-7-bromo-5-(2'-chloro-phenyl)-1,3-dihydro-2H-1,4-benzodiazepin-2-one], the ED50 stood at 1.56 mg/kg in the series with mice (setting [8]); 2.45 mg/kg with mice (setting [9]); 2.4 mg/kg in the series on female NMRI-mice (setting [1]); 1.25 mg/kg in the series on female NMRI-mice (setting [2]); 2.1 mg/kg with female NMRI-mice (setting [3]); 2.4 mg/kg with female NMRI-mice (setting [4]). The median effective dose (ED50) amounted to 37 mg/kg in the series with male NMRI-mice (setting [5]), 8.8 mg/kg with male NMRI-mice (setting [6]) and 22 mg/kg with male NMRI-mice (setting [7]).

With `CN1C(=O)C(=CN)N=C(c2ccccc2Cl)c2cc(I)ccc21` [H, 3-(amino-methylene)-5-(2'-chloro-phenyl)-1,3-dihydro-7-iodo-1-methyl-2H-1,4-benzodiazepin-2-one], the median effective dose (ED50) was found to be 2.6 mg/kg with female NMRI-mice (setting [1]); 1.5 mg/kg with female NMRI-mice (setting [2]); 2.7 mg/kg with female NMRI-mice (setting [3]); 1.6 mg/kg with female NMRI-mice (setting [4]); 38 mg/kg in the series with male NMRI-mice (setting [5]); 30 mg/kg with male NMRI-mice (setting [6]). The 50% effective dose (ED50) in the series on male NMRI-mice (setting [7]) turned out to be 16 mg/kg.
